Key:
Dynamic Vapour Sorption = format: physicochemical; settings: 25° C.; for hygroscopicity: 0-95% RH, two cycles, batches from Method 1 and Method 2 (FIGS. 4 and 5)
Experimental: Analytical Instrument: Surface Measurements Systems Dynamic Vapour Sorption Analyser. About 5 mg of material contained in a quartz holder at a specified temperature was subjected to humidified nitrogen at a flow rate of 200 ml/minute of nitrogen at 25° C. at the following relative humidities (RH): 0, 20, 40, 60, 80, 95, 80, 60, 40, 20, 0% RH in duplicate. The weight of the material at a particular relative humidity was monitored until it was stable according to a weight criteria of 0.002% weight change per minute averaged over 10 minutes. If the weight was still changing then it stayed at a particular relative humidity until the weight was stable (up to a maximum time of 12 hours).

[1] = pro-drug conversion in human plasma; format: in vitro ADME
[2] = system: human colorectal (SW620, HCT116, Colo205) and lung (A549, Calu-6) tumour xenografts; assay: tumour growth inhibition in human tumour xenografts; format: in vivo; settings: panel of human colorectal (SW620, HCT116, Colo205) and lung (A549, Calu-6) tumour xenografts; with statistical significance

| Compound | level of water (hydration state) with relative humidity (Dynamic Vapour Sorption; 0-95% RH (FIG. 6), dehydrated to tetrahydrated state and higher) | conversion of pro-drug to active moiety AZD1152 HQPA [1] | inhibition of tumour growth [2] | hygroscopicity (Dynamic Vapour Sorption) | hygroscopicity (Dynamic Vapour Sorption; listed as maleate co-crystal of AZD1152) |
| --- | --- | --- | --- | --- | --- |
| CCN(CCCOc1ccc2c(Nc3cc(CC(=O)Nc4cccc(F)c4)n[nH]3)ncnc2c1)CCOP(=O)(O)O [AZD1152, 2-{ethyl[3-({4-[(5-{2-[(3-fluorophenyl)amino]-2-oxoethyl}-1H-pyrazol-3-yl)amino]quinazolin-7-yl}oxy)propyl]amino}ethyl dihydrogen phosphate] | quite variable depending on the relative humidity of storage | rapidly and completely converted | inhibit tumour growth | – | – |
| CCN(CCCOc1ccc2c(Nc3cc(CC(=O)Nc4cccc(F)c4)[nH]n3)ncnc2c1)CCOP(=O)(O)O.O=C(O)/C=C\C(=O)O [AZD1152 maleate co-crystal, 2-{ethyl[3-({4-[(5-{2-[(3-fluorophenyl)amino]-2-oxoethyl}-1H-pyrazol-3-yl)amino]quinazolin-7-yl}oxy)propyl]amino}ethyl dihydrogen phosphate.maleate] | – | – | – | non-hygroscopic | substantially non-hygroscopic |

Reference: patent US7625910B2, “Co-crystal” (AstraZeneca AB, priority 2006, dated 2009)
